The results in this text go back to patent publication US10913712B2, “Tetracycline compounds” (Tetraphase Pharmaceuticals, Inc., priority 2012, dated 2021).

In brackets after ≈: the same amount, converted by molar mass. Where two headings read alike, the source gives them in different places.

Data set [1] relates to Staphylococcus aureus SA161 (HA-MRSA, tet(M)). Description: MIC assay. The class given is cell-based.
In data set [2] the test system is Klebsiella pneumoniae KP109 (ATCC 13883). Description: MIC assay. The class given is cell-based.
The test system of a further data set is PA 884 35151. As to the kind of experiment: MIC assay. The class given is cell-based. To be noted: read-out: MIC PA 884 35151.
A further data set has as its system PA 689. As to the kind of experiment: MIC assay. The class given is cell-based. To be noted: read-out: MIC PA 689.
The subject of data set [3] is Klebsiella pneumoniae KP153 (tet(A), MDR, ESBL+).
The test system of data set [4] is Klebsiella pneumoniae KP457 (2009 ESBL+, CTX-M, OXA).
Data set [5] deals with Klebsiella pneumoniae KP153 (tet(A), MDR, ESBL+). Description: microbe, parasite or virus in culture. To be noted: read-out: MIC KP153 tetA.
Data set [6] relates to Enterococcus faecium EF404 (blood isolate, tet(M)). Description: MIC assay. To be noted: read-out: MIC EF 404 tetM, control compounds. It is filed as cell-based.
The test system of data set [7] is Streptococcus pneumoniae SP160 (tet(M)). As to the kind of experiment: MIC assay. The class given is cell-based.
The test system of data set [8] is Escherichia coli EC107 (ATCC 25922). Description: MIC assay. It is filed as cell-based. To be noted: ATCC25922, read-out: MIC EC 107 25922, control compounds.

Turning to `CN(C)c1ccc(O)c2c1C[C@H]1C[C@H]3[C@H](N(C)C)C(O)=C(C(N)=O)C(=O)[C@@]3(O)C(O)=C1C2=O` [Minocycline, minocycline], in data set [1] (control compounds), the “MIC SA 161 tetM” value was found to be 8 µg/mL (≈ 17.5 µM). Further, the MIC was 1 µg/mL (≈ 2.19 µM) in [2] (ATCC13883, Table 4, control compounds, read-out: MIC KP109 13883); 1 µg/mL (≈ 2.19 µM) in the data set on PA 884 35151 (Table 6, control compounds); 8 µg/mL (≈ 17.5 µM) in the data set with PA 689 (Table 6, control compounds); 8 µg/mL (≈ 17.5 µM) in data set [5]. For the same compound, in data set [3], the “MIC KP 153 tetA” value was 8 µg/mL (≈ 17.5 µM). The “MIC KP 457 CTX-M-15” value in data set [4] came out at 8 µg/mL (≈ 17.5 µM).

For the compound `CN(C)c1cc(NC(=O)CNC(C)(C)C)c(O)c2c1C[C@H]1C[C@H]3[C@H](N(C)C)C(O)=C(C(N)=O)C(=O)[C@@]3(O)C(O)=C1C2=O` [Tigecycline, tigecycline], the MIC in data set [1] (Staphylococcus aureus, MRSA, read-out: MIC SA 161 tetM, control compounds) is 0.1 µg/mL (≈ 0.171 µM); in data set [6] it was 0.06 µg/mL (≈ 0.102 µM); in data set [7] (read-out: MIC SP 160 tetM, Table 5, control compounds) it was 0.2 µg/mL (≈ 0.341 µM); in [7] (read-out: MIC SP 160 tetM, control compounds), 0.03 µg/mL (≈ 0.0512 µM); in data set [8], 0.02 µg/mL (≈ 0.0341 µM); in data set [2] (ATCC13883, read-out: MIC KP109 13883), 0.125 µg/mL (≈ 0.213 µM). For the same compound, the MIC in the data set on PA 884 35151 was found to be 0.063 µg/mL (≈ 0.108 µM); with PA 689, 1 µg/mL (≈ 1.71 µM). In addition, the “MIC KP 153 tetA” value in data set [3] (Table 5, control compounds) worked out at 1 µg/mL (≈ 1.71 µM). For the same compound, the “MIC KP 457 CTX-M-15” value in data set [4] (Table 6, control compounds) stood at 1 µg/mL (≈ 1.71 µM); in [4] (Table 7, control compounds), 1 µg/mL (≈ 1.71 µM).

Regarding `CN(C)[C@@H]1C(O)=C(C(N)=O)C(=O)[C@@]2(O)C(O)=C3C(=O)c4c(O)cccc4C[C@H]3C[C@@H]12` [Sancycline, sancycline], the MIC with PA 884 35151 was found to be 4 µg/mL (≈ 9.65 µM); in the data set on PA 689 it was 16 µg/mL (≈ 38.6 µM); in [5], 32 µg/mL (≈ 77.2 µM). In addition, the “MIC KP 153 tetA” value in data set [3] (Table 5, control compounds) came out at 32 µg/mL (≈ 77.2 µM). For the same compound, the “MIC KP 457 CTX-M-15” value in data set [4] was found to be 8 µg/mL (≈ 19.3 µM).
